Assay results as given in US20230278954A1, “BRANCHED LIPID COMPOUDS” (priority 2020, published 2023).
Where “and” joins values, the source holds several entries; their conditions need not be identical. Equal values may be shown once.

How the values were obtained:
[1] = Stability IV: accelerated storage stability over 28 days, UHPLC; format: physicochemical; conditions: 40° C./75% RH
Description: (§1) Each compound was formulated in 0.9% w/w saline with addition of 0.1% w/w EDTA at about pH 5. The formulations were stored in the dark under accelerated conditions (40° C./75% RH) and reference formulations were stored at -80° C. At days 0, 9 and 28, samples were analysed by UHPLC and pH was measured.
Approximately 1.5 mg of each compound was weighed into glass HPLC vials and 1.5 mL of saline/EDTA formulation adjusted to pH 5.0 was added. The vials were vortex mixed then warmed under running hot water until full dissolution was observed.
4 × 100 uL aliquots of each solution were transferred to Agilent polypropylene 200 µL HPLC vials for storage under accelerated and reference conditions (two aliquots at each condition). These vials were removed at each time point for HPLC analysis. The frozen reference solutions at Day 9 and Day 28 were gently warmed under running hot water followed by vortex mixing for ~ 10 sec and sonication for 10 min to encourage complete dissolution. […]
Compounds B4 and B12 were analysed according to Gradient 2: […]
UHPLC results were analysed in a similarly to that described in Example 8. […]
Percentage recovery of main peak area is calculated according to the following equation (1): […]

[2] = Stability IV: formulation pH during accelerated storage; format: physicochemical
Description: as §1
The remaining ~ 1 mL of solution in the clear glass HPLC vials was stored at 40° C./75% RH and was used to measure pH at each time point.
The formulation pH data recorded at each time point are compiled in Table 19. There was a general trend for the pH to increase with time but the effect was not pronounced.

HEK-Blue Null1 cells = experiment: TLR- control cell line HEK-Blue Null1 (control for human TLR2); format: cell-based
Description: (§2) The secreted embryonic alkaline phosphatase (SEAP) reporter is under the control of a promoter inducible by the transcription factor NF-κB. This reporter gene allows the monitoring of signaling through the TLR, based on the activation of NF-κB. In a 96-well plate (200 µL total volume) containing the appropriate cells (50,000 - 75,000 cells/well), 20 µL of the test article or the positive control ligand (HKLC) is added to the wells. The media added to the wells is designed for the detection of NF-κB induced SEAP expression. After a 16-24-hour incubation the optical density (OD) is read at 650 nm on a Molecular Devices SpectraMax 340PC absorbance detector.

HEK-Blue Null2 cells = experiment: TLR- control cell line HEK-Blue Null2 (control for mouse TLR2); format: cell-based
Description: as §2

human TLR2 = molecular target: T1, human TLR2 (Homo sapiens, UniProt O60603); experiment: Activation of human TLR2 II: HEK-BLUE-hTLR2 NF-kB/SEAP reporter assay; format: cell-based; conditions: for optical density (650 nm): screenings 1-3; for EC50 / activity at TLR2 (in words): HEK-BLUE-hTLR2 cells; for fold induction at 0.0001 µg/mL / fold induction at 0.00031 µg/mL / fold induction at 0.0005 µg/mL / fold induction at 0.002 µg/mL / fold induction at 0.0078 µg/mL / fold induction at 0.0313 µg/mL / fold induction at 0.125 µg/mL: HEK-Blue hTLR2, read-out: Fold induction (ratio of average induced value to average non-induced value)
T1 construct: expressed in transfected cells; host or cells: HEK-Blue hTLR2 cells
Description: The potency of the compounds as activators of human TLR-2s is tested in an in vitro assay in HEK-BLUE-hTLR2 cells.
HEK-BLUE-hTLR2 cells are designed for studying the stimulation of human TLR2 (hTLR2) by monitoring the activation of NF-kB. HEK-BLUE-hTLR2 cells are obtained by co-transfection of the hTLR2 and SEAP (secreted embryonic alkaline phosphatase) reporter genes into HEK293 cells. Stimulation with a TLR2 ligand activates NF-kB which induces the production of SEAP.
HEK-BLUE-hTLR2 cells were purchased from InvivoGen (San Diego, CA, USA). Cells were grown in DMEM supplemented with 10% FCS, 100 U/ml penicillin, 100 ug/ml streptomycin and 2 mM L-glutamine, 100 µg/mL Normocin in the presence of selection antibiotic purchased from InvivoGen and passaged when 70% confluence was reached per manufacturer’s recommendation.
i) A serial dilution of respective compounds were prepared in saline and added in […] of each dilution in triplicates per well in a flat bottom 96-well plate and placed in the incubator while waiting for the cells.
ii) Remove HEK-BLUE-hTLR2 cells in a T-75 flask from incubator and discard the growth media.
iii) Gently rinse the cells with prewarmed 10 ml of PBS
iv) Add 5 ml of prewarmed PBS and place the cells in 37° C. for 2 mins and then detach the cells by gently pipetting up and down the PBS on the surface where the cells adhere.
v) Cells suspension at the density of 280,000 cells/ml is prepared in HEK-Blue™ Detection medium which is purchased from InvivoGen and prepared according to the manufacturer’s instruction,
vi) Add immediately […] of the cell suspension per well of the plate which contains the solution of the compounds. […]

mouse TLR2 = molecular target: T2, mouse TLR2 (Mus musculus, UniProt Q9QUN7); experiment: HEK-Blue mTLR2 dose response (SEAP reporter); format: cell-based
T2 construct: expressed in transfected cells; host or cells: HEK-Blue mTLR2 cells
Description: Toll-Like Receptor (TLR) stimulation is tested by assessing NF-KB activation in the TLR expressing cell lines. HEK-Blue h/mTLR2 cells have been stably transfected with human or mouse TLR2 and CD14. The activity of the test articles are tested on human and mouse TLR2, as potential agonists. The test articles are evaluated at seven concentrations and compared to control ligands (see list below). These steps are performed in triplicate.
A 5 µg/mL working stock was then prepared for each compound from the 20 µg/mL dilution in sterile PBS. Starting from the 5 µg/mL working stock, a series of six 1:4 serial dilutions were made by mixing 100 µL of the previous highest dilution with 300 µL sterile PBS.
as §2

T1 sequence (O60603 21-784): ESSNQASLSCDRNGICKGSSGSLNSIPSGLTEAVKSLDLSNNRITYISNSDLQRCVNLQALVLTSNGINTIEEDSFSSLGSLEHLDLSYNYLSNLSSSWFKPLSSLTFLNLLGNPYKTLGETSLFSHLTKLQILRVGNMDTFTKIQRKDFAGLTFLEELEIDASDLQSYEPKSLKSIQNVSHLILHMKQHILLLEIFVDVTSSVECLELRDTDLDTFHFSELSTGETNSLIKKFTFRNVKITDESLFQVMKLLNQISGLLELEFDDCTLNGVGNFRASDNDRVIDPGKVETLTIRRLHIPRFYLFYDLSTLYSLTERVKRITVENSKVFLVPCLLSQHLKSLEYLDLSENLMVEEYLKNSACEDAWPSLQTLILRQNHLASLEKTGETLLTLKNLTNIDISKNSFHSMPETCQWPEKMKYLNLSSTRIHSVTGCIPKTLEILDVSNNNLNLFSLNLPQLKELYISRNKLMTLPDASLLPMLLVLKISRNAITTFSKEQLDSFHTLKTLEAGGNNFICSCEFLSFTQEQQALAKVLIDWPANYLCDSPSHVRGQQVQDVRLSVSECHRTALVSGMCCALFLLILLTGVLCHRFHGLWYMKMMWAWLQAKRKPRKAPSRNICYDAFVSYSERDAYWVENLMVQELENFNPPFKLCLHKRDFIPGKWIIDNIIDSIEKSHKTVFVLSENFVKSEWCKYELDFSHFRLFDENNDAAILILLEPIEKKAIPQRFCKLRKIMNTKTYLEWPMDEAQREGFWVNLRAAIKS
T1 sequence (Q9Y2C9 32-796 partner): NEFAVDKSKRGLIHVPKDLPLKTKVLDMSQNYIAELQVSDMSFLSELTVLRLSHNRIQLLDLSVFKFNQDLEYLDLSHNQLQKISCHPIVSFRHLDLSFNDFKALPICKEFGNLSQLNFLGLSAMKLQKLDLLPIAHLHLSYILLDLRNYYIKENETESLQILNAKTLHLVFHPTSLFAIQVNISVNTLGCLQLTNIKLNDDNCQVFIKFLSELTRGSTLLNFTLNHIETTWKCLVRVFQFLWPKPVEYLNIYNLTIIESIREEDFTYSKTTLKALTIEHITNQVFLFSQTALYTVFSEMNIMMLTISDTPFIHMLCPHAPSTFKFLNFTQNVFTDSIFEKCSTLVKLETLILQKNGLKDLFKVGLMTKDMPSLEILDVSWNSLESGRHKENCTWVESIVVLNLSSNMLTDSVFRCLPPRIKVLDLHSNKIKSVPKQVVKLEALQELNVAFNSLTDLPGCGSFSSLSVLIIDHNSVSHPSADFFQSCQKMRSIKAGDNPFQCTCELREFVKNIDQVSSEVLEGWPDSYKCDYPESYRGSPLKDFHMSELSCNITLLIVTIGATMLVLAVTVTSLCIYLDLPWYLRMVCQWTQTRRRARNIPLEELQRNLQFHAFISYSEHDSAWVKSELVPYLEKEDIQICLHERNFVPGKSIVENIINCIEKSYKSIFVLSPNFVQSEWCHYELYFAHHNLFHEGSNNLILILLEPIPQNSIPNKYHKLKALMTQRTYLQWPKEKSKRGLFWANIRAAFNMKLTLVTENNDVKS
T2 sequence (Q9QUN7 25-784): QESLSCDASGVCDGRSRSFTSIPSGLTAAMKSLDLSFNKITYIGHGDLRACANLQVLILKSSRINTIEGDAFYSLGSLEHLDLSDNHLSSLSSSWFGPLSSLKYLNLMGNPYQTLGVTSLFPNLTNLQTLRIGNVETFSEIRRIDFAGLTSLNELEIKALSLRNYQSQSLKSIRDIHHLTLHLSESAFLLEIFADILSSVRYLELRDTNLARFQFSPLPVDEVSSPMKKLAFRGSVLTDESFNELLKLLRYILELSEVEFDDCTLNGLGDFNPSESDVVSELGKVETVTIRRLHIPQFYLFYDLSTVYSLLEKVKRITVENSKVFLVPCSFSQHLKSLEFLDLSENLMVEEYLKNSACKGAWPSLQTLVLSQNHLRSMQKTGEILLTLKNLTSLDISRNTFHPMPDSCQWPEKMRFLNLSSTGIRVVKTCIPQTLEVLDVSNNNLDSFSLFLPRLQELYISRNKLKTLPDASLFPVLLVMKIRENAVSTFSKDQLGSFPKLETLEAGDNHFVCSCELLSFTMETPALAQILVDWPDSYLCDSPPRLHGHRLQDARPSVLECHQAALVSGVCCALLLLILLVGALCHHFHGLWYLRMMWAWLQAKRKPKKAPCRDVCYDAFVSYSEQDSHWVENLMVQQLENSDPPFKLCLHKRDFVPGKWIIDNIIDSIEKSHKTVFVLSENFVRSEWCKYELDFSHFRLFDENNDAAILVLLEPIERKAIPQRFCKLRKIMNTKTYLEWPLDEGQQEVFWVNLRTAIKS
T2 sequence (Q9Y2C9 32-796 partner): as the sequence (Q9Y2C9 32-796 partner) above

storage stability under accelerated conditions (in words) [1] | pH of formulation ([2]; 0-days) | pH of formulation ([2]; 9-days, 40° C./75% RH) | pH of formulation ([2]; 28-days, 40° C./75% RH) | optical density (650 nm) (human TLR2; 0.1 ng/mL) | optical density (650 nm) (human TLR2; 0.31 ng/mL) | optical density (650 nm) (human TLR2; 0.5 ng/mL) | optical density (650 nm) (human TLR2; 2.0 ng/mL) | optical density (650 nm) (human TLR2; 7.8 ng/mL) | optical density (650 nm) (human TLR2; 31.3 ng/mL) | optical density (650 nm) (human TLR2; 125 ng/mL) | EC50 (human TLR2) | activity at TLR2 (in words) (human TLR2) | fold induction at 0.0001 µg/mL (human TLR2; 0.1 ng/mL) | fold induction at 0.00031 µg/mL (human TLR2; 0.31 ng/mL) | fold induction at 0.0005 µg/mL (human TLR2; 0.5 ng/mL) | fold induction at 0.002 µg/mL (human TLR2; 2.0 ng/mL) | fold induction at 0.0078 µg/mL (human TLR2; 7.8 ng/mL) | Compound | stimulatory response in HEK-Blue Null1 (human) cells (in words) (HEK-Blue Null1 cells) | stimulatory response in HEK-Blue Null2 (mouse) cells (in words) (HEK-Blue Null2 cells) | further results
most stable compounds | 5.6 | 5.7 | 5.7 | 0.182 and 0.206 and 0.197 | 0.126 and 0.115 | 0.719 and 0.594 and 0.617 | 1.660 and 1.529 and 1.498 | 2.214 and 2.163 | 2.438 and 2.327 and 2.350 | 2.451 and 2.411 and 2.467 | 0.605 nM | significant activity | 1.9 | 1.2 | 6.2 | 15.2 | 21.3 | CCCCCCCCCCCCCCC(C)C(=O)OC[C@H](CSC[C@H](N)C(=O)N[C@@H](CO)C(=O)NCCOCCOCCOCCOCCOCCOCCOCCOCCOCCOCCOCCOCCOCCOCCOCCOCCOCCOCCOCCOCCOCCOCCOCCOCCOCCOCCOCCOCCC(=O)NCC(N)=O)OC(=O)C(C)CCCCCCCCCCCCCC (stereo partly shown) [Compound B4] | not observed | not observed | fold induction at 0.0313 µg/mL (human TLR2; 31.3 ng/mL): 23; fold induction at 0.125 µg/mL (human TLR2; 125 ng/mL): 23.7; stimulatory / agonist activity for mTLR2 (in words) (mouse TLR2): stimulatory activity
most stable compounds | 5.6 | 5.7 | 5.7 | 0.239 and 0.202 and 0.208 | 0.116 and 0.132 and 0.137 | 0.585 and 0.558 and 0.559 | 1.429 and 1.308 and 1.638 | 2.187 and 2.257 and 2.302 | 2.422 and 2.423 and 2.449 | 2.409 and 2.564 and 2.615 | 0.74 nM | significant activity | 2.2 | 1.3 | 5.8 | 15 | 23.2 | CCCCCCCCCCCCCCC(C)C(=O)OCC[C@H](CSC[C@H](N)C(=O)N[C@@H](CO)C(=O)NCCOCCOCCOCCOCCOCCOCCOCCOCCOCCOCCOCCOCCOCCOCCOCCOCCOCCOCCOCCOCCOCCOCCOCCOCCOCCOCCOCCOCCC(=O)NCC(N)=O)OC(=O)C(C)CCCCCCCCCCCCCC (stereo partly shown) [Compound B12] | not observed | not observed | fold induction at 0.0313 µg/mL (human TLR2; 31.3 ng/mL): 25.1; fold induction at 0.125 µg/mL (human TLR2; 125 ng/mL): 26.1; stimulatory / agonist activity for mTLR2 (in words) (mouse TLR2): stimulatory activity
